The test concerns HCV. Description: Clinical trials, antiviral activity. It counts as in vivo, Hepatitis C virus.

Take `CCC[C@H](NC(=O)[C@@H]1[C@H]2CCC[C@H]2CN1C(=O)[C@@H](NC(=O)[C@@H](NC(=O)c1cnccn1)C1CCCCC1)C(C)(C)C)C(=O)C(=O)NC1CC1` [VX-950]: the antiviral activity result was “has shown antiviral activity”.

The values are drawn from patent US20120014912A1, “PALATABLE PHARMACEUTICAL COMPOSITION” (VERTEX PHARMACEUTICALS INCORPORATED, priority 2010, published 2012).
